# Laboratory results reported in ChEMBL document CHEMBL5523716, “Discovery of novel EGFR-PROTACs capable of degradation of multiple EGFR-mutated proteins” (Eur J Med Chem, 2024).
# Columns and labels:
# HCC827 = experiment: Antiproliferative activity against human HCC827 cells harboring EGFR Del19 mutant assessed as inhibition of cell growth incubated for 48 to 72 hrs by CCK-8 assay; format: functional, cell-based
# [1] = Antiproliferative activity against human H1975-TM cells harboring EGFR L858R/T790M/C797S mutant assessed as inhibition of cell growth incubated for 48 to 72 hrs by CCK-8 assay; format: functional, cell-based
# [2] = target: von Hippel-Lindau disease tumor suppressor/Epidermal growth factor receptor (Homo sapiens, UniProt P00533+P40337, T790M/L858R); experiment: PROTAC activity at VHL/EGFR L858R/T790M mutant in human NCI-H1975 cells assessed as induction of EGFR degradation incubated for 72 hrs by Western blot analysis; format: cell-based
# NCI-H1975 = experiment: Antiproliferative activity against human NCI-H1975 cells harboring EGFR L858R/T790M double mutant assessed as inhibition of cell growth incubated for 48 to 72 hrs by CCK-8 assay; format: functional, cell-based
# [3] = system: von Hippel-Lindau disease tumor suppressor/Epidermal growth factor receptor (Homo sapiens), P00533+P40337 [UNDEFINED MUTATION]; experiment: PROTAC activity at VHL/EGFR Del19 mutant in human HCC827 cells assessed as maximal EGFR degradation at 3.125 to 200 nM incubated for 72 hrs by Western blot analysis relative to control; format: cell-based; details: dose 3.125-200 nM
# Sequence of von Hippel-Lindau disease tumor suppressor/Epidermal growth factor receptor (Homo sapiens), P00533+P40337 [UNDEFINED MUTATION] (P00533 whole entry, looked up, stated change not applied): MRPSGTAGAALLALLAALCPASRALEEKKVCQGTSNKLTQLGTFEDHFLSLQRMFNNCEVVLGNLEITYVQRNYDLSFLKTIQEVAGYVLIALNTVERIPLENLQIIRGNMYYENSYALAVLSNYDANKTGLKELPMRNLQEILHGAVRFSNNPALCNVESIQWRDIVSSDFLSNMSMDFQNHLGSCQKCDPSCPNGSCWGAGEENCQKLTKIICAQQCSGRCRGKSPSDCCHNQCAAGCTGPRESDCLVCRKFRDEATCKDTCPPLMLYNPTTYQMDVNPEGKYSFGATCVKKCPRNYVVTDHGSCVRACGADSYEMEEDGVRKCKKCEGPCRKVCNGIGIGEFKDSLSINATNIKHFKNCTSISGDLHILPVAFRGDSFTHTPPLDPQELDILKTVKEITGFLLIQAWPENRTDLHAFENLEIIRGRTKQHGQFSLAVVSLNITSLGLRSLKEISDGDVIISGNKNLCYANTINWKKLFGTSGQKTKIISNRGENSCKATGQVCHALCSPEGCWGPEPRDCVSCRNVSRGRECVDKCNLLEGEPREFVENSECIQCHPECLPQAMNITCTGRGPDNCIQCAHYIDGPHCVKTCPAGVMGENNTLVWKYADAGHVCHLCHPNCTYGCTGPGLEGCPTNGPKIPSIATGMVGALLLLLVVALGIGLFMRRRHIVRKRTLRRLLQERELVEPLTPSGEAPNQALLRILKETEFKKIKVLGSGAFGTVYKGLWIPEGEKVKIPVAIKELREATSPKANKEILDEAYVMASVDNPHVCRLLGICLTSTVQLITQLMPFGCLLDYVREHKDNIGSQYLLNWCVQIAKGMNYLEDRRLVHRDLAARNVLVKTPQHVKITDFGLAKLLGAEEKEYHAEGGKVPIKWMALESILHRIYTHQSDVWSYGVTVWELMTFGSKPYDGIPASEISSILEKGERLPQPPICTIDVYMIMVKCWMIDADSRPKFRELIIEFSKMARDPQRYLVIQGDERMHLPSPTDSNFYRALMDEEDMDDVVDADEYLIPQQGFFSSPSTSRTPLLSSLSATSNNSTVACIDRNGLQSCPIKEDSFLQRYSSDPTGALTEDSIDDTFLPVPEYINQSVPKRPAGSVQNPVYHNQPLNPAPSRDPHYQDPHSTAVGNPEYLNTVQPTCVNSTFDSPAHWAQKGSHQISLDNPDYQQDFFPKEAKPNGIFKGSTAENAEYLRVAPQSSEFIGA
# Sequence of von Hippel-Lindau disease tumor suppressor/Epidermal growth factor receptor (Homo sapiens), P00533+P40337 [UNDEFINED MUTATION] (P40337 whole entry, looked up, stated change not applied): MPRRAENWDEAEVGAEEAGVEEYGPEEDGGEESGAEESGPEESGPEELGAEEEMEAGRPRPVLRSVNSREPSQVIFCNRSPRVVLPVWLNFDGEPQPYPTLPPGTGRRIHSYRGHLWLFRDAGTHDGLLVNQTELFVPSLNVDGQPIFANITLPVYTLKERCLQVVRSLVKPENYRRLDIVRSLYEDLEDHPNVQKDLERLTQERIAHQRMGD
# [4] = target: von Hippel-Lindau disease tumor suppressor/Epidermal growth factor receptor (Homo sapiens, UniProt P00533+P40337); experiment: PROTAC activity at VHL/EGFR Del19 mutant in human HCC827 cells assessed as induction of EGFR degradation incubated for 72 hrs by Western blot analysis; format: cell-based
# Sequence of von Hippel-Lindau disease tumor suppressor/Epidermal growth factor receptor (Homo sapiens, UniProt P00533+P40337) (P00533 whole entry, looked up, stated change not applied): as the sequence (P00533 whole entry, looked up, stated change not applied) above
# Sequence of von Hippel-Lindau disease tumor suppressor/Epidermal growth factor receptor (Homo sapiens, UniProt P00533+P40337) (P40337 whole entry, looked up, stated change not applied): as the sequence (P40337 whole entry, looked up, stated change not applied) above
# [5] = system: von Hippel-Lindau disease tumor suppressor/Epidermal growth factor receptor (Homo sapiens), P00533+P40337 [L858R,T790M]; experiment: PROTAC activity at VHL/EGFR L858R/T790M mutant in human NCI-H1975 cells assessed as maximal EGFR degradation at 0.15 to 10 uM incubated for 72 hrs by Western blot analysis relative to control; format: cell-based; details: dose 0.15-10 µM
# Sequence of von Hippel-Lindau disease tumor suppressor/Epidermal growth factor receptor (Homo sapiens), P00533+P40337 [L858R,T790M] (P00533 whole entry T790M/L858R): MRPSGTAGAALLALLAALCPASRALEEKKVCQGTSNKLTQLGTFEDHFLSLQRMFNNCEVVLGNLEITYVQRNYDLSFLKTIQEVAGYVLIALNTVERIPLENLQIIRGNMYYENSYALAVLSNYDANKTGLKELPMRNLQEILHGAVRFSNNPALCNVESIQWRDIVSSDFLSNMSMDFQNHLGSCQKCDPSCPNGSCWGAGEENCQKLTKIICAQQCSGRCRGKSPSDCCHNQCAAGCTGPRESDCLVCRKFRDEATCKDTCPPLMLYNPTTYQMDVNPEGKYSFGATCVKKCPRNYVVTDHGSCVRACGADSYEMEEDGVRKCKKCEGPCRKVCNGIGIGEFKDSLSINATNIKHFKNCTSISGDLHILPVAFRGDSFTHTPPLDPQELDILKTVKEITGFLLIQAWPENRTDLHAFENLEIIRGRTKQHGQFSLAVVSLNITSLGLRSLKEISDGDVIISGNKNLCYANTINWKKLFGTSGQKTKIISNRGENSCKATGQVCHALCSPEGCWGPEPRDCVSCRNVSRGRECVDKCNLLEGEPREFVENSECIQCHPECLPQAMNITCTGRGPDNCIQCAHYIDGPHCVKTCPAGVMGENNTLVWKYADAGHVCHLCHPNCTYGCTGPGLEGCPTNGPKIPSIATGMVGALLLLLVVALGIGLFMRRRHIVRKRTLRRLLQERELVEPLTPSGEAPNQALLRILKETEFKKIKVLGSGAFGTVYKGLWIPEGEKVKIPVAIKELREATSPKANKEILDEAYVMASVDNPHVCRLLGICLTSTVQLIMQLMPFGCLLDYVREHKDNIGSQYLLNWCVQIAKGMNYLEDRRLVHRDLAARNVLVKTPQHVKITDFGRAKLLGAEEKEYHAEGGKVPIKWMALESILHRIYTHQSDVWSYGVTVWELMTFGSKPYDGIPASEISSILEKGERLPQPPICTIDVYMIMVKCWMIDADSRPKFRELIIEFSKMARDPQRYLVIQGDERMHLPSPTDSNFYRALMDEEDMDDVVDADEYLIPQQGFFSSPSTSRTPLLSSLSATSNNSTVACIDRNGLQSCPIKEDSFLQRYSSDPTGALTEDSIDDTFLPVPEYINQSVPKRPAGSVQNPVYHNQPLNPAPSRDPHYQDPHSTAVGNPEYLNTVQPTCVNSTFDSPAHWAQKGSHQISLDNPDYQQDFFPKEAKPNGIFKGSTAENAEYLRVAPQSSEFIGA
# Sequence of von Hippel-Lindau disease tumor suppressor/Epidermal growth factor receptor (Homo sapiens), P00533+P40337 [L858R,T790M] (P40337 whole entry partner): as the sequence (P40337 whole entry, looked up, stated change not applied) above
# A-431 = experiment: Antiproliferative activity against human A-431 cells harboring EGFR wild type assessed as inhibition of cell growth incubated for 48 to 72 hrs by CCK-8 assay; format: functional, cell-based
# A549 = experiment: Antiproliferative activity against human A549 cells harboring EGFR wild type assessed as inhibition of cell growth incubated for 48 to 72 hrs by CCK-8 assay; format: functional, cell-based
smiles,measurement,setting,value
CCN(CC)C/C=C/C(=O)Nc1cc2c(Nc3ccc(F)c(Cl)c3)ncnc2cc1OCc1cn(CCCCCCCCCCC(=O)N[C@H](C(=O)N2C[C@H](O)C[C@H]2C(=O)NCc2ccc(-c3scnc3C)cc2)C(C)(C)C)nn1,IC50,HCC827,15 nM
same,IC50,[1],> 20000 nM
same,DC50,[2],380 nM
same,IC50,NCI-H1975,380 nM
same,Emax,[3],99%
same,DC50,[4],28.7 nM
same,Emax,[5],93%
same,IC50,A-431,> 20000 nM
same,IC50,A549,> 20000 nM
